Experimental data reported in PubChem BioAssay AID270 (DTP/NCI, 2004).
Values joined by “and” are separate entries in the source; they are usually repeats but may differ in a detail not shown here. Equal values may be shown once. Records with an inconclusive call do not appear.

Test system: BDF1 mice, s.c. Lewis lung carcinoma, T/C %
Experiment: NCI In Vivo Anticancer Drug Screen. Data for tumor model Lewis Lung Carcinoma (subcutaneous) in B6D2F1 (BDF1) mice
In short: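 Antitumor effect in vivo is scored from survival or tumor burden, reported as treated relative to vehicle controls.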

`CC1=C(/C=C/C(C)=C/C=C/C(C)=C/CO)C(C)(C)CCC1` was tested, and the T/C (endpoint: median survival time, dose: 4.0 mg/kg/injection, schedule: Q01DX005 (ip), vehicle: saline with Tween-80, higher = longer survival) was 108 % of control, the T/C (endpoint: median survival time, dose: 12.5 mg/kg/injection, schedule: Q01DX005 (ip), vehicle: saline with Tween-80, higher = longer survival) was 109 % of control and the T/C (endpoint: median survival time, dose: 16.0 mg/kg/injection, schedule: Q01DX005 (ip), vehicle: saline with Tween-80, higher = longer survival) was 111 % of control. For the same compound, the T/C (endpoint: median survival time, dose: 32.0 mg/kg/injection, schedule: Q01DX005 (ip), vehicle: saline with Tween-80, higher = longer survival) was 115 % of control, the T/C (endpoint: median survival time, dose: 64.0 mg/kg/injection, schedule: Q01DX005 (ip), vehicle: saline with Tween-80, higher = longer survival) was 191 % of control and the T/C (endpoint: median survival time, dose: 128.0 mg/kg/injection, schedule: Q01DX005 (ip), vehicle: saline with Tween-80, higher = longer survival) was 92 % of control.

`CN(C)C(=S)N=Nc1c(O)[nH]c2ccccc12` was tested, and the T/C (endpoint: mean tumor weight, dose: 6.6 mg/kg/injection, schedule: Q01DX011 (ip), vehicle: carboxymethylcellulose (CMC), higher = larger tumour) was 74 % of control, the T/C (endpoint: mean tumor weight, dose: 10.0 mg/kg/injection, schedule: Q01DX011 (ip), vehicle: carboxymethylcellulose (CMC), higher = larger tumour) was 89 % of control and the T/C (endpoint: mean tumor weight, dose: 15.0 mg/kg/injection, schedule: Q01DX011 (ip), vehicle: carboxymethylcellulose (CMC), higher = larger tumour) was 47 % of control and 65 % of control. The T/C (endpoint: mean tumor weight, dose: 30.0 mg/kg/injection, schedule: Q01DX011 (ip), vehicle: carboxymethylcellulose (CMC), higher = larger tumour) was 50 % of control.

`NC1=NC(=S)C2N=C(N=Nc3ccc(C(=O)NC(CCC(=O)O)C(=O)O)cc3)N=C2N1` (centres undefined) was tested, and the T/C (endpoint: median survival time, dose: 0.2 mg/kg/injection, schedule: Q01DX009 (ip), vehicle: Klucel (hydroxypropylcellulose) (HPC), higher = longer survival) was 97 % of control, the T/C (endpoint: median survival time, dose: 0.4 mg/kg/injection, schedule: Q01DX009 (ip), vehicle: Klucel (hydroxypropylcellulose) (HPC), higher = longer survival) was 93 % of control and the T/C (endpoint: median survival time, dose: 0.78 mg/kg/injection, schedule: Q01DX009 (ip), vehicle: Klucel (hydroxypropylcellulose) (HPC), higher = longer survival) was 110 % of control.

`COc1c(OC)c(O)c2c(=O)cc(-c3ccc(O)cc3)oc2c1OC` was tested, and the T/C (endpoint: mean tumor weight, dose: 25.0 mg/kg/injection, schedule: Q01DX011 (sc), vehicle: steriod suspending solution, higher = larger tumour) was 100 % of control, the T/C (endpoint: mean tumor weight, dose: 50.0 mg/kg/injection, schedule: Q01DX011 (sc), vehicle: steriod suspending solution, higher = larger tumour) was 81 % of control and the T/C (endpoint: mean tumor weight, dose: 100.0 mg/kg/injection, schedule: Q01DX011 (sc), vehicle: steriod suspending solution, higher = larger tumour) was 85 % of control. The T/C (endpoint: mean tumor weight, dose: 200.0 mg/kg/injection, schedule: Q01DX011 (sc), vehicle: steriod suspending solution, higher = larger tumour) was 68 % of control.

In the case of `OC(CBr)C(O)C(O)C(O)CBr` (centres undefined), the T/C (endpoint: mean tumor weight (est.), dose: 75.0 mg/kg/injection, schedule: Q01DX009 (ip), vehicle: Klucel (hydroxypropylcellulose) (HPC), higher = larger tumour) is reported as 107 % of control, the T/C (endpoint: mean tumor weight (est.), dose: 150.0 mg/kg/injection, schedule: Q01DX009 (ip), vehicle: Klucel (hydroxypropylcellulose) (HPC), higher = larger tumour) is reported as 92 % of control and the T/C (endpoint: mean tumor weight (est.), dose: 300.0 mg/kg/injection, schedule: Q01DX009 (ip), vehicle: Klucel (hydroxypropylcellulose) (HPC), higher = larger tumour) is reported as 63 % of control. The T/C (endpoint: mean tumor weight, dose: 25.0 mg/kg/injection, schedule: Q01DX011 (ip), vehicle: saline, higher = larger tumour) was 103 % of control, the T/C (endpoint: mean tumor weight, dose: 50.0 mg/kg/injection, schedule: Q01DX011 (ip), vehicle: saline, higher = larger tumour) was 82 % of control and the T/C (endpoint: mean tumor weight, dose: 100.0 mg/kg/injection, schedule: Q01DX011 (ip), vehicle: saline, higher = larger tumour) was 46 % of control and 51 % of control. For the same compound, the T/C (endpoint: mean tumor weight, dose: 400.0 mg/kg/injection, schedule: Q01DX011 (ip), vehicle: saline, higher = larger tumour) was 118 % of control, the T/C (endpoint: median survival time, dose: 100.0 mg/kg/injection, schedule: Q01DX009 (ip), vehicle: saline, higher = longer survival) was 107 % of control and the T/C (endpoint: median survival time, dose: 150.0 mg/kg/injection, schedule: Q01DX009 (ip), vehicle: Klucel (hydroxypropylcellulose) (HPC), higher = longer survival) was 113 % of control. The T/C (endpoint: median survival time, dose: 200.0 mg/kg/injection, schedule: Q01DX009 (ip), vehicle: saline, higher = longer survival) was 102 % of control and the T/C (endpoint: median survival time, dose: 400.0 mg/kg/injection, schedule: Q01DX009 (ip), vehicle: saline, higher = longer survival) was 107 % of control.

For `CC(C)c1ccc(O)c(=O)cc1`, the T/C (endpoint: mean tumor weight, dose: 37.5 mg/kg/injection, schedule: Q01DX011 (ip), vehicle: carboxymethylcellulose (CMC), higher = larger tumour) was 52 % of control and the T/C (endpoint: mean tumor weight, dose: 75.0 mg/kg/injection, schedule: Q01DX011 (ip), vehicle: carboxymethylcellulose (CMC), higher = larger tumour) was 62 % of control.

With `CCN1C=C/C(=C\C=C/c2cc[n+](CC)c3ccccc23)c2ccccc21` the T/C (endpoint: median survival time, dose: 6.0 micrograms/kg/injection, schedule: Q01DX009 (ip), vehicle: saline, higher = longer survival) was 114 % of control, the T/C (endpoint: median survival time, dose: 6.2 micrograms/kg/injection, schedule: Q01DX009 (ip), vehicle: saline with Tween-80, higher = longer survival) was 104 % of control and the T/C (endpoint: median survival time, dose: 12.0 micrograms/kg/injection, schedule: Q01DX009 (ip), vehicle: saline, higher = longer survival) was 209 % of control. The T/C (endpoint: median survival time, dose: 12.5 micrograms/kg/injection, schedule: Q01DX009 (ip), vehicle: saline with Tween-80, higher = longer survival) was 98 % of control, the T/C (endpoint: median survival time, dose: 25.0 micrograms/kg/injection, schedule: Q01DX009 (ip), vehicle: saline with Tween-80, higher = longer survival) was 101 % of control and the T/C (endpoint: median survival time, dose: 25.0 micrograms/kg/injection, schedule: Q01DX009 (ip), vehicle: saline, higher = longer survival) was 208 % of control. The T/C (endpoint: median survival time, dose: 50.0 micrograms/kg/injection, schedule: Q01DX009 (ip), vehicle: saline with Tween-80, higher = longer survival) was 98 % of control, the T/C (endpoint: median survival time, dose: 50.0 micrograms/kg/injection, schedule: Q01DX009 (ip), vehicle: saline, higher = longer survival) was 209 % of control and the T/C (endpoint: median survival time, dose: 100.0 micrograms/kg/injection, schedule: Q01DX009 (ip), vehicle: saline with Tween-80, higher = longer survival) was 104 % of control.
